Data on seven compounds can be found in the kinase profiling compilation of Christmann-Franck et al. (2016).

Common to all, as to experiment: KINOMEscan competition binding
Common to all, as to details: compound 10.0 µM

Experiment [1] has as its system PIK3CA (human), P42336 [Q546K].
Experiment [2] has as its system ABL1 (human), P00519 [M351T].
The test system of experiment [3] is FLT3 (human), P36888 [N841I].
For experiment [4], the system named is EIF2AK4 KD2 (human), Q9P2K8 [S808G].
For experiment [5], the system named is KIT (human), P10721 [V559D].
Chain of KIT (human), P10721 [V559D] (P10721 whole entry V559D, looked up): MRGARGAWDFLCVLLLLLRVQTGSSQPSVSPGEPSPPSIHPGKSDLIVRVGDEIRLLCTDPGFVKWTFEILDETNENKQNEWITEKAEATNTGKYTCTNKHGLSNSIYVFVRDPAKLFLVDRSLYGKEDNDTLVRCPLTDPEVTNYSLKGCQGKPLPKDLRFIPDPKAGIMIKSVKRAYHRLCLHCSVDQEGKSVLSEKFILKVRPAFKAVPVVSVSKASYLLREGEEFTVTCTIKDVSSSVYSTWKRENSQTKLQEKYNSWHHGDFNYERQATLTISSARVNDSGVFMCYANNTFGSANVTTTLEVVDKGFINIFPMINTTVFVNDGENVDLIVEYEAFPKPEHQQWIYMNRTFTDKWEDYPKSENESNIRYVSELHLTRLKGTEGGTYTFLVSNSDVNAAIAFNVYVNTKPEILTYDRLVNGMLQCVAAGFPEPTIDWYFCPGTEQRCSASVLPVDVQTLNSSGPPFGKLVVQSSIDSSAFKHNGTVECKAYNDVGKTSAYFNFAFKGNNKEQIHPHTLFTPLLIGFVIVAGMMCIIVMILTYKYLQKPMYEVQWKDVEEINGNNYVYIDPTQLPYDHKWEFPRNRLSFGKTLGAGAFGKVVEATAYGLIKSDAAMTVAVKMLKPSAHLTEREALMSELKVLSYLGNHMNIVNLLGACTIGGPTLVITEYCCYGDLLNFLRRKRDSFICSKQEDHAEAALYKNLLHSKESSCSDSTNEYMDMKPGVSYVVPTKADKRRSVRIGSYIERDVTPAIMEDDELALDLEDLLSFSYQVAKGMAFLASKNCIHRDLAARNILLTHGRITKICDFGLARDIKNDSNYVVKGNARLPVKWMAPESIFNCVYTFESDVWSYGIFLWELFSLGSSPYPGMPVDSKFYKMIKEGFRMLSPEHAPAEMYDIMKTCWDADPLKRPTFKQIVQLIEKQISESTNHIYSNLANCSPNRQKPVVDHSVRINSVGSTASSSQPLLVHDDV
In experiment [6] the test system is KIT (human), P10721 [D816V].
Chain of KIT (human), P10721 [D816V] (P10721 whole entry D816V, looked up): as the sequence (P10721 whole entry V559D, looked up) above, with D559V, D816V counted along it
For experiment [7], the system named is PIK3CA (human), P42336 [I800L].
Chain of PIK3CA (human), P42336 [I800L] (P42336 whole entry I800L, looked up): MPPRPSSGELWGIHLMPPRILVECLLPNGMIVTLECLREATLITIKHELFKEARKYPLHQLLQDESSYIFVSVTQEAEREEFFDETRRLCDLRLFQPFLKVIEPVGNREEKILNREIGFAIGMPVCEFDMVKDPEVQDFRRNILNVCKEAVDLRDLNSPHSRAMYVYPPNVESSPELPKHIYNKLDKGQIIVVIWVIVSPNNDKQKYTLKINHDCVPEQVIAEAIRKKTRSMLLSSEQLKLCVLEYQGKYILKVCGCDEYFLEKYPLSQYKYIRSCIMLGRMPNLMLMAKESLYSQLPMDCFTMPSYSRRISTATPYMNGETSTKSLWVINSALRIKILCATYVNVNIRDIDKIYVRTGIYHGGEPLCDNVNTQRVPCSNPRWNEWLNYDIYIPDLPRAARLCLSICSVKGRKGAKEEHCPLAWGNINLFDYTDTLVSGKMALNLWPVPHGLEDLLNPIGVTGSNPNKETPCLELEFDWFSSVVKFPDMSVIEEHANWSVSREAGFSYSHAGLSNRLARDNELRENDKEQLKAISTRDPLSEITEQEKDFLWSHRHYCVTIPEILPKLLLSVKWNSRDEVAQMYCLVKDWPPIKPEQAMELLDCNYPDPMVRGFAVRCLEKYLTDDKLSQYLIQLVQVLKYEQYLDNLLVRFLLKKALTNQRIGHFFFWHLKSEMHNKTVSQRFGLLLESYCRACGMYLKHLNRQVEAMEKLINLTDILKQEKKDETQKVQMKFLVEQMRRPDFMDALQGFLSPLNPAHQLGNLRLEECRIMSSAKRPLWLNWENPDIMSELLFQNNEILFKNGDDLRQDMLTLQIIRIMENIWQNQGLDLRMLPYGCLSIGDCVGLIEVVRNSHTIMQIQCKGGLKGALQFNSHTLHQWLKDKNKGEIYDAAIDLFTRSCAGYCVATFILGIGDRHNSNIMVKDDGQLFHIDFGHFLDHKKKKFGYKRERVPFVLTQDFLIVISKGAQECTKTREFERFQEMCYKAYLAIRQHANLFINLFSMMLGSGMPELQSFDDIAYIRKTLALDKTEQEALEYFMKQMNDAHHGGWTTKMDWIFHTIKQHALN
Experiment [8] concerns KIT (human), P10721 [V559D/T670I].
Chain of KIT (human), P10721 [V559D/T670I] (P10721 whole entry V559D/T670I, looked up): as the sequence (P10721 whole entry V559D, looked up) above, with T670I counted along it
Experiment [9] concerns FLT3 (human), P36888 [K663Q].
Experiment [10] relates to PIK3CA (human), P42336 [C420R].
Chain of PIK3CA (human), P42336 [C420R] (P42336 whole entry C420R, looked up): as the sequence (P42336 whole entry I800L, looked up) above, with C420R, L800I counted along it
Experiment [11] concerns EGFR (human), P00533 [P753S; 747-752 del].
Experiment [12] concerns EGFR (human), P00533 [746-750 del].
Experiment [13] deals with PIK3CA (human), P42336 [E545A].
Chain of PIK3CA (human), P42336 [E545A] (P42336 whole entry E545A, looked up): as the sequence (P42336 whole entry I800L, looked up) above, with E545A, L800I counted along it
Experiment [14] has as its system PIK3CA (human), P42336 [H1047Y].
Experiment [15] relates to PIK3CA (human), P42336 [E545K].
Chain of PIK3CA (human), P42336 [E545K] (P42336 whole entry E545K, looked up): as the sequence (P42336 whole entry I800L, looked up) above, with E545K, L800I counted along it
The subject of experiment [16] is EGFR (human), P00533 [G719S].
The subject of experiment [17] is EGFR (human), P00533 [L861Q].
The subject of experiment [18] is ABL1 (human), P00519 [E255K].
Experiment [19] concerns FLT3 (human), P36888 [ITD].

Chain of PIK3CA (human), P42336 [H1047Y] (P42336 whole entry H1047Y, looked up): as the sequence (P42336 whole entry I800L, looked up) above, with L800I, H1047Y counted along it
Chain of EIF2AK4 KD2 (human), Q9P2K8 [S808G] (Q9P2K8 whole entry S808G, looked up): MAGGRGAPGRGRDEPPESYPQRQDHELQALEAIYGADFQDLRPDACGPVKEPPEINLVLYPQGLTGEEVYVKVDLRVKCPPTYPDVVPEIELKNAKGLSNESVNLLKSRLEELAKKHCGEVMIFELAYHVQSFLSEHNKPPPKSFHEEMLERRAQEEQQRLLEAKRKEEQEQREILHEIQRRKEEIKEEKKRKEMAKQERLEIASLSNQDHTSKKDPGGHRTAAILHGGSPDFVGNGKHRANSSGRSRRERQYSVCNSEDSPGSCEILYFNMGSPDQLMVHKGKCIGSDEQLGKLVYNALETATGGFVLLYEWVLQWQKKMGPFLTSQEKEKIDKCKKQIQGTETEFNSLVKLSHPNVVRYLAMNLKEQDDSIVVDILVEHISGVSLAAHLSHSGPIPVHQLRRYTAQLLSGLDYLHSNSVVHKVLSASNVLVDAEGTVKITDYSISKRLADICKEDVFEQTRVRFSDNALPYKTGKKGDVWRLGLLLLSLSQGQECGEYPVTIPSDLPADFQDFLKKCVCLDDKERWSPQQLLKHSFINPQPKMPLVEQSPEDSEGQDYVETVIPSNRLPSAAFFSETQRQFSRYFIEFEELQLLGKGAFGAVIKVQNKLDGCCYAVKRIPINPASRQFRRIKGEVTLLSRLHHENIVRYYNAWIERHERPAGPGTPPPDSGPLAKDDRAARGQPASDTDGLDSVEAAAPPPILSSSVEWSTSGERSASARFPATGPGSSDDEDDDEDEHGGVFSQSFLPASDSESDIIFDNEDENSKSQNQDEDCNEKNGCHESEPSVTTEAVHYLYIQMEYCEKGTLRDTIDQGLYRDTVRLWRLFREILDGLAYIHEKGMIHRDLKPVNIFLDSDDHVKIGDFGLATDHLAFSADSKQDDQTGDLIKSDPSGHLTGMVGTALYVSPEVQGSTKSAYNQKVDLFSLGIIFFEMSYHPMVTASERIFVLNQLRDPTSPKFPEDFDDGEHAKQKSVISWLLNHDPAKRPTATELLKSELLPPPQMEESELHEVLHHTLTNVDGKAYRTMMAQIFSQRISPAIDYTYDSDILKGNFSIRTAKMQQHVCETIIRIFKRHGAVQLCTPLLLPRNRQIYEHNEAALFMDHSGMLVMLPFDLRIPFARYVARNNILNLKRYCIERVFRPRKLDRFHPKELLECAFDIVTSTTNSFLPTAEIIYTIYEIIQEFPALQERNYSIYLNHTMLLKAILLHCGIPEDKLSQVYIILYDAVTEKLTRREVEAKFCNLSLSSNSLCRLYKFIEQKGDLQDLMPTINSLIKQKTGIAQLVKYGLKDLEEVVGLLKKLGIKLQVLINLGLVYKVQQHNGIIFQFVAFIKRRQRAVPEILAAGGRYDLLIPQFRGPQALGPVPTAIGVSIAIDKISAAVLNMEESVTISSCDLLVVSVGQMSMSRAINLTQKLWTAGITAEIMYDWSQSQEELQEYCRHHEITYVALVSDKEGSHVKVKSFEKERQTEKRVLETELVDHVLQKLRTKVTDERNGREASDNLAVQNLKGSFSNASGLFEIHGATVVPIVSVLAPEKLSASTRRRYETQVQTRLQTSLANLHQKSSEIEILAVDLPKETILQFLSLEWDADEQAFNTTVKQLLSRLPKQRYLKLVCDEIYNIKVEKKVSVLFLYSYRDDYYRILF
Chain of PIK3CA (human), P42336 [Q546K] (P42336 whole entry Q546K, looked up): as the sequence (P42336 whole entry I800L, looked up) above, with Q546K, L800I counted along it

On to `CC1=C(C(=O)Nc2cc3cn[nH]c3cc2F)C(c2ccc(C(F)(F)F)cc2)CC(=O)N1` (stereo not drawn), for which the kinase still bound, per cent of control in experiment [1] stood at 32%; in [2], 82%; in experiment [3] it was 75%; in experiment [4] it was 100%; in [5] it was 82%; in [6], 49%. For the same compound, the kinase still bound, per cent of control in experiment [7] stood at 100%; in experiment [8] it was 88%; in experiment [9], 78%; in experiment [10] it was 63%; in [11], 100%; in [12] it was 96%. Moreover, the kinase still bound, per cent of control stood at 38% in experiment [13]; 43% in [14]; 100% in experiment [15]; 57% in experiment [16]; 91% in experiment [17]; 77% in experiment [18]. Also, the kinase still bound, per cent of control in experiment [19] turned out to be 83%.
On to `COc1ccc(N(C(=O)Oc2c(C)cccc2C)c2ccnc(Nc3ccc(N4CCN(C)CC4)cc3)n2)c(OC)c1`, for which the kinase still bound, per cent of control in experiment [1] amounted to 81%; in experiment [2] it was 1.3%; in [3] it was 0.65%; in experiment [4] it was 100%; in [5] it was 0.25%; in [6], 3.4%. In addition, the kinase still bound, per cent of control in [7] stood at 100%; in experiment [8] it was 48%; in experiment [9], 3.4%; in experiment [10], 100%; in experiment [11] it was 0%; in experiment [12], 0%. The kinase still bound, per cent of control in [13] amounted to 45%; in [14], 94%; in [15], 100%; in experiment [16] it was 0.45%; in experiment [17] it was 0.1%; in experiment [18], 0.3%. The kinase still bound, per cent of control in [19] amounted to 4.8%.
As to `N#Cc1cc(-c2ccnc(Nc3ccc(-n4cnc(-c5cccnc5)n4)cc3)n2)cc(N2CCOCC2)c1`, the kinase still bound, per cent of control in [1] is 75%; in experiment [2] it was 69%; in experiment [3] it was 12%; in experiment [4] it was 3.3%; in experiment [5], 1%; in experiment [6] it was 5.3%. Moreover, the kinase still bound, per cent of control turned out to be 64% in [7]; 4.2% in experiment [8]; 17% in experiment [9]; 100% in experiment [10]; 76% in experiment [11]; 67% in experiment [12]. Besides, the kinase still bound, per cent of control in experiment [13] is 58%; in [14], 100%; in experiment [15], 100%; in [16], 94%; in experiment [17], 92%; in experiment [18], 75%. This compound showed a kinase still bound, per cent of control in experiment [19] of 28%.
In the case of `C=CC(=O)Nc1ccc(C(=O)c2sc(Nc3ccc(N4CCN(C)CC4)cc3OC)nc2N)cc1`, the kinase still bound, per cent of control in [1] is 100%; in experiment [2], 82%; in experiment [3] it was 37%; in experiment [4], 83%; in [5], 69%; in experiment [6], 67%. Besides, the kinase still bound, per cent of control in experiment [7] was 83%; in experiment [8] it was 59%; in [9] it was 64%; in experiment [10], 83%; in experiment [11] it was 81%; in [12], 77%. The kinase still bound, per cent of control in [13] amounted to 93%; in experiment [14], 88%; in experiment [15], 93%; in [16], 52%; in experiment [17] it was 51%; in experiment [18], 81%. Moreover, the kinase still bound, per cent of control in experiment [19] came out at 73%.
Turning to `C=CC(=O)Nc1cc(-n2c(=O)ccc3cnc4ccc(-c5cn[nH]c5)cc4c32)ccc1C`, the kinase still bound, per cent of control in [1] is 21%; in experiment [2], 64%; in [3], 1.6%; in experiment [4], 100%; in [5], 66%; in [6], 5.8%. Besides, the kinase still bound, per cent of control in experiment [7] was 0.45%; in experiment [8], 96%; in experiment [9] it was 18%; in experiment [10], 18%; in [11], 53%; in [12], 58%. Also, the kinase still bound, per cent of control in [13] worked out at 23%; in experiment [14] it was 13%; in [15] it was 21%; in experiment [16] it was 79%; in experiment [17], 22%; in [18], 39%. In experiment [19], this compound yielded a kinase still bound, per cent of control of 2.4%.
`O=C1NC(=O)/C(=C/c2ccc3nccc(-c4ccncc4)c3c2)S1`: the kinase still bound, per cent of control in experiment [1] worked out at 1.3%; in [2], 56%; in experiment [3], 39%; in experiment [4] it was 7.4%; in [5], 30%; in experiment [6] it was 63%. For the same compound, the kinase still bound, per cent of control in experiment [7] is 12%; in [8], 76%; in [9], 37%; in experiment [10] it was 0.4%; in [11] it was 74%; in experiment [12], 81%. In addition, the kinase still bound, per cent of control in experiment [13] came out at 0.1%; in [14], 0.9%; in experiment [15] it was 0.75%; in [16], 78%; in experiment [17], 87%; in experiment [18], 71%. In experiment [19], the kinase still bound, per cent of control came out at 47%.
Take `CCN1CCN(C(=O)Cc2ccc(Nc3ncc(F)c(Nc4ccc(C(=O)Nc5ccccc5Cl)cc4)n3)cc2)CC1`: the kinase still bound, per cent of control was determined as 23% in [1]; 19% in [2]; 0% in experiment [3]; 0.4% in experiment [4]; 0.5% in experiment [5]; 0.75% in [6]. Besides, the kinase still bound, per cent of control in [7] came out at 88%; in experiment [8], 21%; in [9], 0.4%; in [10] it was 57%; in experiment [11] it was 38%; in experiment [12] it was 48%. For the same compound, the kinase still bound, per cent of control in experiment [13] came out at 25%; in experiment [14] it was 62%; in experiment [15], 97%; in [16] it was 78%; in experiment [17], 52%; in experiment [18] it was 6.2%. In experiment [19], the kinase still bound, per cent of control was 0.1%.
